Laboratory results: publication PMC11851430, “Workflow for E3 Ligase Ligand Validation for PROTAC Development” (ACS Chemical Biology, 2025)

How the values were obtained:
full-length AAK1 = full-length AAK1 (Homo sapiens, UniProt Q2M2I8); experiment: NanoBRET target engagement assay, intact and permeabilized cells
Protocol: (§9) Compounds were pipetted at various concentrations using an Echo acoustic dispenser (Labcyte), immediately followed by Tracer K10 (Promega, Tracer DB ID: T000008) for AAK1 and Aurora A and VHL Tracer (Promega, Tracer DB ID: T000019) for VHL, at an optimum KD concentration chosen from TracerDB ( tracerdb.org), respectively.
(§10) To measure the BRET signal, the NanoBRET® NanoGlo Substrate (Promega:
(§11) N1573) was added as per the manufacturer’s protocol, and filtered luminescence was measured on a PHERAstar plate reader (BMG Labtech) equipped with a luminescence filter pair (450 nm BP filter (donor) and 610 nm LP filter (acceptor)). For NanoBRET® measurement in permeabilized cells, 25 nL of digitonin (0.05 μg/μL) was pipetted into each well using an
(§12) After incubation, the BRET signals were measured by a PHERAstar plate reader (BMG Labtech) following the same procedure as intact NanoBRET® measurement. Competitive displacement data were then normalized to controls and were plotted using GraphPad Prism 9 software employing a normalized 3-parameter curve fit with the following equation:

VHL = VHL (Homo sapiens, UniProt P40337); experiment: cell-based; parameters: full-length, NanoLuc fusion (Promega N2741); species or system HEK293T; NanoBRET VHL tracer displacement in permeabilized cells, NanoLuc-VHL fusion; conditions: permeabilized cells; read-out: VHL permeabilized (IC50±sd)/µM
AURKA = biological target: T1, AURKA (Homo sapiens, UniProt O14965); experiment: NanoBRET target engagement assay, intact and permeabilized cells; conditions: mean of duplicates, ^a values estimated by extrapolation
T1 sequence (O14965 1-403): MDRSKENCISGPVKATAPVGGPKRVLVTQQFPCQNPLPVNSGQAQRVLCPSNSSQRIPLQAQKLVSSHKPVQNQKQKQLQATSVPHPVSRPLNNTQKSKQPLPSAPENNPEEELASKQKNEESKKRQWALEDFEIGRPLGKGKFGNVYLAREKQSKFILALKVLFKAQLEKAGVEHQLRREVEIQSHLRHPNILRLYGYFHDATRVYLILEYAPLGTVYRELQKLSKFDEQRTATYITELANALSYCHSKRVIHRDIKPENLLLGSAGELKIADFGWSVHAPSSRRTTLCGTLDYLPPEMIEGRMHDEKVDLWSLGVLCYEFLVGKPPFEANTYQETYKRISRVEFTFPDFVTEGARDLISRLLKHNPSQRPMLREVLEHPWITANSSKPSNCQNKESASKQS
Protocol: as §9, §10, §11, §12

[1] = biological target: T2, kinase protein levels in MCF-7 cells (Homo sapiens, UniProt A0A096LP01); experiment: TMT-labeled quantitative proteomics; assay type: cell-based; conditions: MCF7, 1 µM
T2 construct: endogenous in cells; host or cells: MCF-7
Protocol: (§1) 50 µl of SDS Lysis Buffer (2% SDS, 50 mM TRIS pH 8.5, 10 mM TCEP, 40 mM CAA) was added to each sample. Cells were transferred into low binding reaction tubes (Eppendorf:
(§2) Methanol/Chloroform Precipitation. 200 µl of methanol and 50 µl of chloroform were added to each sample reaction tube and mixed via vortex. 150 µl of milliQ-H2O were added and samples were vortexed further. Samples were centrifuged for 5 minutes at 15000 g and the aqueous layer above the interphase was removed. 150 µl of methanol was added, samples were vortexed and centrifuged for 10 minutes at 15000 g to precipitate the pellet. The aforementioned wash procedure was repeated twice before transferring the pellet to a new low bind reaction tube in which it was allowed to dry for 5 minutes.
(§3) Dissolving the Protein Pellet and Protein Quantification. 50 µl of digestion buffer (8 M Urea, 50 mM TRIS pH 8) was added to each sample before vortexing and shaking at 750 rpm at room temperature for 10 minutes to solubilize the pellet. Protein quantification via PierceTM […]
(§4) Protein Digestion. Samples were diluted 1:2 with 50 mM TRIS pH 8.5 to reach a final concentration of 4 M Urea. Lys-C (Promega: VA1170) was added at a 1:100 enzyme/substrate ratio. Samples were agitated at 550 rpm and 37 °C for 3 h. Samples were further diluted with 50 mM TRIS pH 8.5 to a final concentration of 1 M Urea and Trypsin (Promega: V5280) was added at a 1:100 enzyme/substrate ratio. Samples were agitated overnight at 550 rpm and 37 °C. The digestion was stopped the following day via addition of TFA to a final concentration […]
(§5) Solid Phase Extraction via C18 Cartridges. Sep-Pak C18 Cartridges (Waters: WAT054955) were used for solid phase extraction of digested peptides. For preconditioning of C18 cartridges, 1 mL of methanol was added to each column followed by 1 mL of solution B (0.1% formic acid, 80% acetonitrile) and 1 mL of solution A (0.1% formic acid, ddH2O) twice. Samples […]
(§6) were loaded to their respective columns and once samples had passed, columns were washed twice with solution A to remove unwanted components from the loading step. Elution of samples was carried out via introduction of 40% and 60% acetonitrile steps. Samples were dried and snap frozen in liquid nitrogen.
(§7) TMT-Labeling. Desalted peptides were dried and resuspended in TMT-labeling buffer (200 mM EPPS pH 8.2, 20% acetonitrile). 10 μg of peptides per condition were subjected to TMT labeling with 1:2.5 peptide TMT ratio (w/w) for 1 h at room temperature. The labeling reaction was quenched by addition of hydroxylamine to a final concentration of 0.5% and incubation at room temperature for 15 minutes. Successful TMT labeling was verified by mixing equimolar ratios of peptides and subjecting the mix to single shot LC-MS/MS analysis. For high pH reversed phase fractionation on a Dionex analytical HPLC, 50 µg of pooled and purified TMT labelled samples were resuspended in 10 mM ammonium-bicarbonate (ABC), 5% acetonitrile, and separated on a 250 mm long C18 column (Aeris Peptide XB-C18, 4.6 mm ID, 2.6 µm particle size; Phenomenex) using a multistep gradient from 100% solvent A (5% acetonitrile, 10 mM ABC in water) to 60% solvent B (90% acetonitrile, 10 mM ABC in water) over 70 minutes. Eluting peptides were collected every 45 seconds into a total of 96 fractions, which were cross-concatenated into 24 fractions and dried in a vacuum concentrator and resuspended in 3% acetonitrile with 0.1% TFA for LC-MS analysis.
(§8) Mass spectrometry data acquisition. Tryptic peptides were analyzed on an Orbitrap Lumos coupled to an easy nLC 1200 (ThermoFisher Scientific) using a 35 cm long, 75 µm ID fused-silica column packed in house with 1.9 µm C18 particles (Reprosil pur, Dr. Maisch), and kept at 50 °C using an integrated column oven (Sonation). HPLC solvents consisted of 0.1% formic acid in water (buffer A) and 0.1% formic acid and 80% acetonitrile in water (buffer B). Assuming

[2] = test system: kinase protein levels in MCF-7 cells; experiment: TMT-labeled quantitative proteomics; assay type: cell-based, human; conditions: for kinase degradation: MCF-7 cells, 1 μM, 6 h; for log2FC (compound/DMSO): MCF7, 1 µM, set5
Protocol: as §1, §2, §3, §4, §5, §6, §7, §8

[3] = biological target: T3, kinase protein levels in MCF-7 cells (Homo sapiens, UniProt Q9BTL3); experiment: TMT-labeled quantitative proteomics; assay type: cell-based; conditions: protein FAM103A1; MCF7; 1 µM; set5
T3 construct: endogenous in cells; host or cells: MCF-7
Protocol: as §1, §2, §3, §4, §5, §6, §7, §8

[4] = biological target: T4, kinase protein levels in MCF-7 cells (Homo sapiens, UniProt P0DPI2); experiment: TMT-labeled quantitative proteomics; assay type: cell-based; conditions: protein GATD3; MCF7; 1 µM; set2
T4 construct: endogenous in cells; host or cells: MCF-7
T4 sequence (P0DPI2 42-268): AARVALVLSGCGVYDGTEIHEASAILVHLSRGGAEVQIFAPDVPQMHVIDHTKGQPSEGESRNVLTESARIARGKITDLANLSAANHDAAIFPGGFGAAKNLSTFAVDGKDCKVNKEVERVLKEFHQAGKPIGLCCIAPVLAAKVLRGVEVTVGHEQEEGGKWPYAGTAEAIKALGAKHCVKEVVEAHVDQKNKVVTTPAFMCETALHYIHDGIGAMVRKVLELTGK
Protocol: as §1, §2, §3, §4, §5, §6, §7, §8

[5] = biological target: T5, kinase protein levels in MCF-7 cells (Homo sapiens, UniProt A0A0B4J2F0); experiment: TMT-labeled quantitative proteomics; assay type: cell-based; conditions: protein PIGBOS1; MCF7; 1 µM; set2
T5 construct: endogenous in cells; host or cells: MCF-7
T5 sequence (A0A0B4J2F0 1-54): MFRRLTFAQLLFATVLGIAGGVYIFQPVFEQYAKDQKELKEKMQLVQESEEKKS
Protocol: as §1, §2, §3, §4, §5, §6, §7, §8

[6] = biological target: T6, kinase protein levels in MCF-7 cells (Homo sapiens, UniProt A0A024RBG1); experiment: TMT-labeled quantitative proteomics; assay type: cell-based; conditions: protein NUDT4B; MCF7; 1 µM; set2
T6 construct: endogenous in cells; host or cells: MCF-7
Protocol: as §1, §2, §3, §4, §5, §6, §7, §8

[7] = biological target: T7, kinase protein levels in MCF-7 cells (Homo sapiens, UniProt A0A0U1RRE5); experiment: TMT-labeled quantitative proteomics; assay type: cell-based; conditions: protein NBDY; MCF7; 1 µM; set2
T7 construct: endogenous in cells; host or cells: MCF-7
T7 sequence (A0A0U1RRE5 1-68): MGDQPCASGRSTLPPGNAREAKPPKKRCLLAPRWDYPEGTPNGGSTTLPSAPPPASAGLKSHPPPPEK
Protocol: as §1, §2, §3, §4, §5, §6, §7, §8

Jurkat cells = experiment: CellTiterGlo cell viability assay; assay type: cell-based, human; conditions: 24 h
Protocol: The effects of the compounds on cell viability was determined using the CellTiter-Glo® 2.0 Cell Viability Assay (Promega: G9241) following manufacturer’s protocol. Ten µL of Jurkat cells at […]
After equilibration, PROTACs were titrated at various concentrations using an Echo acoustic […]
volume of CellTiter-Glo® 2.0 reagent (10 µL) was added to each well and cells were incubated for 10 minutes at room temperature. Filtered luminescence was measured on a PHERAstar plate reader (BMG Labtech) and data was evaluated using GraphPad Prism 9 software employing a normalized curve it with the following equation: Y=Bottom + (Top-Bottom)/(1+10(LogEC50-X) *HillSlope).
Sample preparation. Jurkat cells (ATCC © HTB-22) were cultured in RPMI (Thermo: […]

[8] = AAK1 intact (IC50±sd)/μM, NanoBRET, intact cells, mean of duplicates, ^a values estimated by extrapolation
[9] = AAK1 permeabilized (IC50±sd)/μM, NanoBRET, permeabilized cells, mean of duplicates
[10] = AURKA intact (IC50±sd)/μM, intact cells
[11] = AURKA permeabilized (IC50±sd)/μM, permeabilized cells
[12] = protein NBPF19;NBPF15;NBPF8;NBPF10;NBPF3;NBPF11;NBPF26;NBPF14;NBPF1;NBPF12

Chain of VHL (P40337 whole entry, the tested form may be a part): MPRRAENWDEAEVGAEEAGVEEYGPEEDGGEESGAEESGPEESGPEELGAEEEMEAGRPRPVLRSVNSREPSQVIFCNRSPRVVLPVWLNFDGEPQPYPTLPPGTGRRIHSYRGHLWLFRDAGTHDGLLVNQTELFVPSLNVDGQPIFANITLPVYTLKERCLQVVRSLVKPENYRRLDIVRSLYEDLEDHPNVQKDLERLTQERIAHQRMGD
Chain of full-length AAK1 (Q2M2I8 whole entry, the tested form may be a part): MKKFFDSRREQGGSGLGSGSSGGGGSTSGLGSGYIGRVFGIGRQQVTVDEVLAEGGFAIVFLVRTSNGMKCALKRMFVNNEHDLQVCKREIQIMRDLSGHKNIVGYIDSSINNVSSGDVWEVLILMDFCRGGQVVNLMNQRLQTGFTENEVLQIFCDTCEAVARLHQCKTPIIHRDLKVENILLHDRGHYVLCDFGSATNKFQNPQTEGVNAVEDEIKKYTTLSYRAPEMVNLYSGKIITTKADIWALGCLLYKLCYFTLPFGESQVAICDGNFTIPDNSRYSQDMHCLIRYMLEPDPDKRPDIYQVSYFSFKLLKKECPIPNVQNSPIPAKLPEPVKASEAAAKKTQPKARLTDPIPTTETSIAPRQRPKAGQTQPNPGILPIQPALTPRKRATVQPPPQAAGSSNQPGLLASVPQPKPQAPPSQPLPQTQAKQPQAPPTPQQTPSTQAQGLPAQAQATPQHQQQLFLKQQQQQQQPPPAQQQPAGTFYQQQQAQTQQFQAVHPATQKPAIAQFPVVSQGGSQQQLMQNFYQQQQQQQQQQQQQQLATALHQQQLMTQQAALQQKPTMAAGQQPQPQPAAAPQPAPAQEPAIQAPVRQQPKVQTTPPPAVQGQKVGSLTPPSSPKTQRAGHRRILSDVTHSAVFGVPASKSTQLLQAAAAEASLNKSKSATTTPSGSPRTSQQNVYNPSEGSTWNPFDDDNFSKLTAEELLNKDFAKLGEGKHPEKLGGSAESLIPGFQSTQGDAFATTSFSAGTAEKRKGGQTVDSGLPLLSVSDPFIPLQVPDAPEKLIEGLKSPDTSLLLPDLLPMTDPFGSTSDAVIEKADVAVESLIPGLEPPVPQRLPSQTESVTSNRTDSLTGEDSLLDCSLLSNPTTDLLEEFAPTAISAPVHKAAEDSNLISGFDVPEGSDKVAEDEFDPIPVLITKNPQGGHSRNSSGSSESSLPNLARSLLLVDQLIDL
T3 sequence (Q9BTL3 whole entry): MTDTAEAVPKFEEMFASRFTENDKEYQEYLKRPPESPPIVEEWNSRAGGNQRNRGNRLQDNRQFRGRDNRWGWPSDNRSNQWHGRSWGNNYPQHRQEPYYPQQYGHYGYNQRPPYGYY
T2 sequence (A0A096LP01 whole entry): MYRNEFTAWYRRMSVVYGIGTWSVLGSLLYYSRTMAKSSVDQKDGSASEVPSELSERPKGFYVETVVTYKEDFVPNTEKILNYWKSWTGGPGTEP
T6 sequence (A0A024RBG1 whole entry): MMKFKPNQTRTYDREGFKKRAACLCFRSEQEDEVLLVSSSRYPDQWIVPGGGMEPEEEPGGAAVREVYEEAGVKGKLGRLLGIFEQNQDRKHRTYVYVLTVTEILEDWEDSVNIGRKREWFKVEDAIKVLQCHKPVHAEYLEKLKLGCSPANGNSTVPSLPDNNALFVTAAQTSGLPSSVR

| IC50 (full-length AAK1; [8]) [µM] | IC50 (full-length AAK1; [9]) [µM] | IC50 (VHL) [µM] | IC50 (AURKA; [10]) [µM] | IC50 (AURKA; [11]) [µM] | P.Value (compound/DMSO) ([1]; protein LINC00493, set5) | log2FC (compound/DMSO) ([1]; protein LINC00493, set5) | P.Value (compound/DMSO) [3] | log2FC (compound/DMSO) [3] | SMILES | kinase degradation [2] | log2FC (compound/DMSO) ([2]; protein ARHGEF5;ARHGEF35) | log2FC (compound/DMSO) [2, 12] | further results |
| --- | --- | --- | --- | --- | --- | --- | --- | --- | --- | --- | --- | --- | --- |
| ~1.84 | 0.081 | 0.97 ± 0.013 | ~18.9 | 4.84 ± 2.01 | 0.7132 | 0.05687 | 0.9701 | 0.005351 | Cc1ncsc1-c1ccc(CNC(=O)[C@@H]2C[C@@H](O)CN2C(=O)[C@@H](NC(=O)CCOCCOCCOCCOCCOCCOCCN2CCN(c3cc(Nc4cc(C5CC5)[nH]n4)nc(Nc4ccc(CC#N)cc4)n3)CC2)C(C)(C)C)cc1 [4-b] | did not result in significant degradation of any kinase | 0.1142 | 0.1563 | AAK1 intact (IC50±sd)/μM (full-length AAK1; NanoBRET, intact cells, mean of duplicates, ^a values estimated by extrapolation): single-digit micromolar; cell permeability / cell penetration (full-length AAK1; as shown by the NanoBRET data (intact vs permeabilized cells)): Inefficient cell penetration |
| 0.443 ± 0.043 | 0.178 ± 0.029 | 4.32 ± 1.46 | ~5.98 | 2.73 ± 0.78 | 0.06841 | 0.3546 | 0.9983 | -0.0003068 | Cc1ncsc1-c1ccc(CNC(=O)[C@@H]2C[C@@H](O)CN2C(=O)[C@@H](NC(=O)CCCCCCN2CCN(c3cc(Nc4cc(C5CC5)[nH]n4)nc(Nc4ccc(CC#N)cc4)n3)CC2)C(C)(C)C)cc1 [4-c] | significant degradation of several kinases | 0.09465 | -0.3485 | – |
| 0.126 ± 0.033 | 0.038 ± 0.006 | 0.366 ± 0.064 | 4.62 ± 1.12 | 1.52 ± 0.061 | – | – | – | – | CC(=O)N[C@H](C(=O)N1C[C@H](O)C[C@H]1C(=O)NCc1ccc(-c2scnc2C)cc1OCCOCCOCCOCCOCCC(=O)N1CCN(c2cc(Nc3cc(C4CC4)[nH]n3)nc(Nc3ccc(CC#N)cc3)n2)CC1)C(C)(C)C [4-d] | did not result in significant degradation of any kinase | – | – | P.Value (compound/DMSO) ([1]; protein SMIM26, set2): 0.9318; log2FC (compound/DMSO) ([1]; protein SMIM26, set2): 0.01005; P.Value (compound/DMSO) [4]: 0.2539; log2FC (compound/DMSO) [4]: -0.1491; P.Value (compound/DMSO) [5]: 0.6355; log2FC (compound/DMSO) [5]: 0.04834; P.Value (compound/DMSO) [6]: 0.1315; log2FC (compound/DMSO) [6]: -0.2481; P.Value (compound/DMSO) [7]: 0.03785; log2FC (compound/DMSO) [7]: -0.3975 |
| 0.088 ± 0.003 | 0.028 ± 0.001 | 1.123 ± 0.005 | 0.203 ± 0.01 | 0.105 ± 0.007 | 0.02321 | -0.4581 | 0.2865 | 0.1658 | Cc1ncsc1-c1ccc(CNC(=O)[C@@H]2C[C@@H](O)CN2C(=O)[C@@H](NC(=O)CCOCCOCCN2CCN(c3ccc(Nc4ncc(Cl)c(Nc5ccccc5C(N)=O)n4)cc3)CC2)C(C)(C)C)cc1 [6-a] | significant degradation of several kinases | 0.1364 | -0.2637 | effect on cell viability (cytotoxicity) (Jurkat cells): particularly pronounced effects on cell viability; IC50 (Jurkat cells; Homo sapiens, mean of triplicates, ^b/^c values estimated, read-out: IC50±sd/μM (cell viability)): ~0.8 µM |
